Assay results reported in US10358449B2, “Xanthine derivative” (priority 2015, dated 2019).
Counter-ions that a name gives are not always drawn. Like-named read-outs stand apart in the source and are kept apart here. Marks after values point to notes of the source that are not given here.

Legend:
[1] = target: humanized recombinant DPP-IV (Homo sapiens (Human), UniProt P27487); assay: DPP-IV activity inhibition test in vitro (DPPIV-Glo luminescence); type: biochemical; settings: DPP-IV, Table 1; read-out: IC50
Method: (1) DPP-IV Activity Inhibition Tests In Vitro
DPP-IV could hydrolyze Gly-Pro-Aminoluciferin at room temperature to generate Aminoluciferin, which could produce “glow type” luminescent signals in a luciferase reaction system provided by a DPPIV-Glo™ protease test kit, and the strength of the luminescent signals was in direct proportion to the enzyme activity of DPP-IV.
2.1 humanized recombinant DPP-IV: SIGMA product, article number D3446-10UG.
2.2 DPPIV-Glo™ protease detection kit: Promega product, article number G8351.
3.2 Diluting dipeptidyl peptidase IV (Sigma) to 0.2 ng/ml solution with 10 mM Tris-HCl (pH 8.0), adding the samples to be detected in, per well 25 μl. […] Experimental Results

[2] = CD-1 mouse, 5 mg/kg, oral administration; cited from earlier work
[3] = system: obese mice (B6.Cg-Lepob/JNju); assay: Glucose tolerance test of obese mice; type: in vivo, mouse; parameters: AUC0-120 min: unit not given beside the values
Method: (§1) 2. Experimental method: normal mice, obese mice and diabetic mice were used for studying glucose tolerance tests Experimental process of OGTT (Oral Glucose Tolerance Test): fasting for 6 hours before the test begins, 60 min after drug administration, glucose was administrated by gavage (drug concentration 0.6 mg/ml, administration volume 5 ml/kg) (2 g/kg glucose was administrated to diabetic mice; 2 g/kg glucose was administrated to obese mice; and 5 g/kg glucose was administrated to normal mice), blood glucose values at 0 min, 15 min, 30 min, 45 min, 60 min and 120 min are respectively determined after glucose administration, […]

[4] = man, 5 mg/subject; cited from earlier work
[5] = system: diabetic mice (B6.BKS(D)-Leprdb/JNju); assay: Glucose tolerance test of diabetic mice (Table 5); type: in vivo, mouse; parameters: AUC0-120 min: unit not given beside the values
Method: as §1

normal mice (C57BL/6J) = assay: Oral glucose tolerance test of normal mice; type: in vivo, mouse; parameters: AUC0-120 min: unit not given beside the values
Method: as §1

humanized recombinant DPP-IV, sequence (P27487 whole entry): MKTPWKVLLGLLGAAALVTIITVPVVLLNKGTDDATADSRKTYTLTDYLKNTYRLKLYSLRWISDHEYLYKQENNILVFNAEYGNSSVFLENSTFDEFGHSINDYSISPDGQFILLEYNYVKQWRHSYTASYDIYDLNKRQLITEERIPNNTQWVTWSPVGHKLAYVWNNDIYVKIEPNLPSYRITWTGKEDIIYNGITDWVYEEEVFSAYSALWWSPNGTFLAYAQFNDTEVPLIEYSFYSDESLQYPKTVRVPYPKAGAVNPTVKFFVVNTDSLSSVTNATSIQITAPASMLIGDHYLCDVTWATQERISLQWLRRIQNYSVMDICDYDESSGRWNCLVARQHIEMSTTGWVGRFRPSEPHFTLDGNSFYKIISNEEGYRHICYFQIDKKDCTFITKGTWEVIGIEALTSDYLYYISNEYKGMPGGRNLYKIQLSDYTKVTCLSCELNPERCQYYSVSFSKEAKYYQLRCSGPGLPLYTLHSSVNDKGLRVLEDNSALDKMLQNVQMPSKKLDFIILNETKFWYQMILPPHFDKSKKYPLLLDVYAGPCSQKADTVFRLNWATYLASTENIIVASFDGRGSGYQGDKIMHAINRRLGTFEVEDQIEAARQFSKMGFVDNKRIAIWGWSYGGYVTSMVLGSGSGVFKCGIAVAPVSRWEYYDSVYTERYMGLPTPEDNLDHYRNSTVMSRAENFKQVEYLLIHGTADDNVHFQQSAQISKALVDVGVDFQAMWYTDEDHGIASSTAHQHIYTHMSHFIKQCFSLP

CC#CCn1c(N2CCC[C@@H](N)C2)nc2c1c(=O)n(Cc1cccc(F)c1C#N)c(=O)n2C [Compound I-1, 1-[(6-fluorine-benzonitrile-2-yl)methyl]-3-methyl-7-(2-butyne-1-yl)-8-[(R)-3-amino-piperidine-1-yl]-xanthine]
IC50 [1]: 0.21 nM

CC#CCn1c(N2CCC[C@@H](N)C2)nc2c1c(=O)n(Cc1cc(F)c(F)cc1C#N)c(=O)n2C [Compound I-2, 1-[(4,5-difluoro-benzonitrile-2-yl)methyl]-3-methyl-7-(2-butyne-1-yl)-8-[(R)-3-amino-piperidine-1-yl]-xanthine]
IC50 [1]: 2.1 nM

CC#CCn1c(N2CCC[C@@H](N)C2)nc2c1c(=O)n(Cc1ncccc1C(=O)OC)c(=O)n2C [Compound I-4, 1-[(3-methyl formate-pyridine-2-yl)methyl]-3-methyl-7-(2-butyne-1-yl)-8-[(R)-3-amino-piperidine-1-yl]-xanthine]
IC50 [1]: 4.8 nM

CC#CCn1c(N2CCC[C@@H](N)C2)nc2c1c(=O)n(Cc1nc(C)c3ccccc3n1)c(=O)n2C [Linagliptin, linagliptin, reference compound]
bioavailability (F) [2]: 18.4% | Blood glucose concentration 0 min ([3]; obese mice B6.Cg-Lepob/JNju, drug at -60 min (0.6 mg/ml, 5 ml/kg), 2 g/kg glucose at 0 min): 10.95 mmol/L | Blood glucose concentration 15 min ([3]; obese mice, 15 min after glucose): 31.73 mmol/L | Blood glucose concentration 30 min ([3]; obese mice, 30 min after glucose): 27.98 mmol/L | Blood glucose concentration 45 min ([3]; obese mice, 45 min after glucose): 20.50 mmol/L | Blood glucose concentration 60 min ([3]; obese mice, 60 min after glucose): 16.00* mmol/L | Blood glucose concentration 120 min ([3]; obese mice, 120 min after glucose): 11.50 mmol/L | AUC0-120 min ([3]; obese mice, blood glucose AUC): 2230 | bioavailability (F) [4]: 30% | Blood glucose concentration 0 min ([5]; diabetic mice B6.BKS(D)-Leprdb/JNju, drug at -60 min (0.6 mg/ml, 5 ml/kg), 2 g/kg glucose at 0 min): 12.09 mmol/L | Blood glucose concentration 15 min ([5]; diabetic mice, 15 min after glucose): 29.98* mmol/L | Blood glucose concentration 30 min ([5]; diabetic mice, 30 min after glucose): 20.15*** mmol/L | Blood glucose concentration 45 min ([5]; diabetic mice, 45 min after glucose): 16.60*** mmol/L | Blood glucose concentration 60 min ([5]; diabetic mice, 60 min after glucose): 15.83** mmol/L | Blood glucose concentration 120 min ([5]; diabetic mice, 120 min after glucose): 10.05* mmol/L | AUC0-120 min ([5]; diabetic mice, blood glucose AUC): 1987** | Blood glucose concentration 0 min (normal mice (C57BL/6J); normal mice C57BL/6J, drug at -60 min (0.6 mg/ml, 5 ml/kg), 5 g/kg glucose at 0 min): 8.64* mmol/L | Blood glucose concentration 15 min (normal mice (C57BL/6J); normal mice, 15 min after glucose): 14.7*** mmol/L | Blood glucose concentration 30 min (normal mice (C57BL/6J); normal mice, 30 min after glucose): 10.5*** mmol/L | Blood glucose concentration 45 min (normal mice (C57BL/6J); normal mice, 45 min after glucose): 9.5*** mmol/L | Blood glucose concentration 60 min (normal mice (C57BL/6J); normal mice, 60 min after glucose): 10.14*** mmol/L | Blood glucose concentration 120 min (normal mice (C57BL/6J); normal mice, 120 min after glucose): 7.72 mmol/L | AUC0-120 min (normal mice (C57BL/6J); normal mice, blood glucose AUC): 1198***
